From the NIST ThermoML archive (doi:10.1016/j.jct.2018.04.015)

Assay: mn = molality of the nth substance listed, in mol/kg
Conditions: 100 kPa, Liquid; for viscosity: Capillary tube (Ostwald / Ubbelohde) method; for mass density: Vibrating tube method

C[N+](C)(C)CCO.[Cl-] [choline chloride] + O
Conditions	mass density, 293.15 K [kg/m3]	mass density, 298.15 K [kg/m3]	mass density, 303.15 K [kg/m3]	mass density, 308.15 K [kg/m3]	mass density, 313.15 K [kg/m3]	viscosity, 293.15 K [mPa·s]	viscosity, 298.15 K [mPa·s]	viscosity, 303.15 K [mPa·s]	viscosity, 308.15 K [mPa·s]	viscosity, 313.15 K [mPa·s]
m1 = 0.08502	999.63	998.44	997.02	995.39	993.55	–	–	–	–	–
m1 = 0.09081	–	–	–	–	–	1.034	0.916	0.819	0.737	0.668
m1 = 0.1494	–	–	–	–	–	1.049	0.929	0.831	0.748	0.678
m1 = 0.15	1000.68	999.47	998.03	996.38	994.52	–	–	–	–	–
m1 = 0.2002	1001.48	1000.25	998.79	997.13	995.25	–	–	–	–	–
m1 = 0.2056	–	–	–	–	–	1.062	0.941	0.841	0.757	0.686
m1 = 0.2501	1002.25	1001	999.53	997.85	995.96	–	–	–	–	–
m1 = 0.2998	–	–	–	–	–	1.082	0.959	0.858	0.772	0.7
m1 = 0.3003	1003.03	1001.75	1000.27	998.57	996.66	–	–	–	–	–
m1 = 0.3503	1003.78	1002.49	1000.99	999.27	997.34	–	–	–	–	–
m1 = 0.3511	–	–	–	–	–	1.093	0.968	0.867	0.78	0.708
m1 = 0.3997	1004.52	1003.22	1001.7	999.95	998	–	–	–	–	–
m1 = 0.4226	–	–	–	–	–	1.107	0.981	0.878	0.791	0.718
m1 = 0.4502	1005.27	1003.94	1002.41	1000.64	998.67	–	–	–	–	–
m1 = 0.489	–	–	–	–	–	1.119	0.993	0.889	0.801	0.728
m1 = 0.499	1005.99	1004.64	1003.08	1001.3	999.3	–	–	–	–	–
